According to ChEMBL document CHEMBL1153832, “Identification and characterization of UK-201844, a novel inhibitor that interferes with human immunodeficiency virus type 1 gp160 processing” (Antimicrob Agents Chemother, 2007):
Calls of active or inactive are those of the source. The rule behind the calls is not given here.

Assays:
[1] = system: Human immunodeficiency virus 1; assay: Antiviral activity against HIV1 NL4-3 infected in human MT2 cells assessed as inhibition of virus-induced cytopathic effect after 6 days by XTT assay; type: functional, organism-based; details: Human immunodeficiency virus 1, NL4-3, MT2, 144 h
[2] = Therapeutic index, ratio of CC50 for human PM1 cells to EC50 for HIV1 NL4-3; type: cell-based; details: read-out: TI
[3] = system: Human immunodeficiency virus 1; assay: Antiviral activity against HIV1 NL4/3BFL chimeric virus transfected in HEK293 cells assessed as inhibition of viral envelope gp160/gp120 processing at 15 uM by Western blot; type: functional; details: Human immunodeficiency virus 1, NL4/3BFL
[4] = system: Human immunodeficiency virus 1; assay: Ratio of EC50 for recombinant HIV1 NL4-3 bearing envelope with G354E, V372E substitutions to EC50 for parental HIV1 NL4-3; type: functional
[5] = system: Human immunodeficiency virus 1; assay: Antiviral activity against recombinant HIV1 NL4-3 bearing envelope with S162N, N302Y, G354E, V372E, D474N substitutions infected in human MT2 cells by virus production assay; type: functional, organism-based
[6] = system: Human immunodeficiency virus 1; assay: Ratio of EC50 for recombinant HIV1 NL4-3 bearing envelope with G354E substitution to EC50 for parental HIV1 NL4-3; type: functional
[7] = system: Human immunodeficiency virus 1; assay: Antiviral activity against recombinant HIV1 NL4-3 bearing envelope with S162N, N302Y substitutions infected in human MT2 cells by virus production assay; type: functional, organism-based
[8] = system: Human immunodeficiency virus 1; assay: Antiviral activity against recombinant HIV1 NL4/3B5'Env chimeric virus infected in human MT2 cells assessed as inhibition of virus-induced CPE; type: functional, organism-based; details: Human immunodeficiency virus 1, NL4/3B5'Env
[9] = system: Human immunodeficiency virus 1; assay: Antiviral activity against HIV1 NL4-3 infected in human CEM-SS cells; type: functional, organism-based
Furin (Homo sapiens) = Furin (Homo sapiens) (UniProt P09958); assay: Inhibition of human recombinant furin up to 100 uM
[10] = system: Human immunodeficiency virus 1; assay: Antiviral activity against HIV1 NL4-3 infected in human 174XCEM T-cells; type: functional, organism-based
[11] = system: Human immunodeficiency virus 1; assay: Ratio of EC50 for recombinant HIV1 NL4-3 bearing envelope with S162N, N302Y substitutions to EC50 for parental HIV1 NL4-3; type: functional
[12] = Cytotoxicity against human PM1 cells after 6 days by XTT assay; type: cell-based
[13] = system: Human immunodeficiency virus 1; assay: Antiviral activity against HIV1 bearing HIV1 NL4-3 envelope assessed as reduction in viral envelope-mediated membrane fusion by cell-based fusion assay; type: functional, organism-based
[14] = system: Human immunodeficiency virus 1; assay: Antiviral activity against recombinant HIV1 NL4/3BCt chimeric virus infected in human MT2 cells assessed as inhibition of virus-induced CPE; type: functional, organism-based; details: Human immunodeficiency virus 1, NL4/3BCt
[15] = system: Human immunodeficiency virus 1; assay: Antiviral activity against HIV1 bearing VSV envelope infected in human HeLa CD4 cells coexpressing LTR/beta-Gal gene assessed as reduction in virus-induced beta-galactosidase reporter gene activity after 72 hrs by single-cycle infection assay; type: functional, organism-based; details: Human immunodeficiency virus 1, HeLa
[16] = system: Human immunodeficiency virus 1; assay: Antiviral activity against HIV1 NL4-3 infected in human MT2 cells assessed as inhibition of viral p24 antigen level at 15 uM by Western blot; type: functional; details: Human immunodeficiency virus 1, NL4-3, MT2
[17] = system: Human immunodeficiency virus 1; assay: Antiviral activity against recombinant HIV1 NL4-3 bearing envelope with G354E substitution infected in human MT2 cells by virus production assay; type: functional, organism-based
[18] = system: Human immunodeficiency virus 1; assay: Antiviral activity against HIV1 NL4-3 transfected in HEK293 cells assessed as inhibition of viral envelope gp160 processing at 7.5 uM by Western blot; type: functional; details: Human immunodeficiency virus 1, NL4-3, HEK293
[19] = system: Human immunodeficiency virus 1; assay: Ratio of EC50 for recombinant HIV1 NL4-3 bearing envelope with G354E, D474N substitutions to EC50 for parental HIV1 NL4-3; type: functional
[20] = system: Human immunodeficiency virus 1; assay: Ratio of EC50 for recombinant HIV1 NL4-3/3BCt chimeric virus to EC50 for parental HIV1 NL4-3 virus; type: functional
[21] = system: Human immunodeficiency virus 1; assay: Antiviral activity against recombinant HIV1 NL4/3BNt chimeric virus infected in human MT2 cells assessed as inhibition of virus-induced CPE; type: functional, organism-based; details: Human immunodeficiency virus 1, NL4/3BNt
[22] = system: Human immunodeficiency virus 1; assay: Antiviral activity against HIV1 bearing VSV envelope infected in human MT2 cells assessed as inhibition of VSV-envelope packed virions at 15 uM after 72 hrs by virus production assay relative to control; type: functional; details: Human immunodeficiency virus 1, MT2, 72 h
[23] = system: Human immunodeficiency virus 1; assay: Antiviral activity against HIV1 NL4-3 infected in human MT2 cells assessed as inhibition of viral p24 antigen level at 1.0 uM by Western blot; type: functional; details: Human immunodeficiency virus 1, NL4-3, MT2
[24] = system: Human immunodeficiency virus 1; assay: Ratio of EC50 for recombinant HIV1 NL4-3 bearing envelope with G354E, V372E, D474N substitutions to EC50 for parental HIV1 NL4-3; type: functional
[25] = system: Human immunodeficiency virus 1; assay: Antiviral activity against recombinant HIV1 NL4-3 bearing envelope with G354E, D474N substitutions infected in human MT2 cells by virus production assay; type: functional, organism-based
[26] = system: Human immunodeficiency virus 1; assay: Antiviral activity against recombinant HIV1 NL4-3 bearing envelope with V372E substitution infected in human MT2 cells by virus production assay; type: functional, organism-based
[27] = Cytotoxicity against human MT2 cells after 6 days by XTT assay; type: cell-based

Chain of Furin (Homo sapiens) (P09958 whole entry): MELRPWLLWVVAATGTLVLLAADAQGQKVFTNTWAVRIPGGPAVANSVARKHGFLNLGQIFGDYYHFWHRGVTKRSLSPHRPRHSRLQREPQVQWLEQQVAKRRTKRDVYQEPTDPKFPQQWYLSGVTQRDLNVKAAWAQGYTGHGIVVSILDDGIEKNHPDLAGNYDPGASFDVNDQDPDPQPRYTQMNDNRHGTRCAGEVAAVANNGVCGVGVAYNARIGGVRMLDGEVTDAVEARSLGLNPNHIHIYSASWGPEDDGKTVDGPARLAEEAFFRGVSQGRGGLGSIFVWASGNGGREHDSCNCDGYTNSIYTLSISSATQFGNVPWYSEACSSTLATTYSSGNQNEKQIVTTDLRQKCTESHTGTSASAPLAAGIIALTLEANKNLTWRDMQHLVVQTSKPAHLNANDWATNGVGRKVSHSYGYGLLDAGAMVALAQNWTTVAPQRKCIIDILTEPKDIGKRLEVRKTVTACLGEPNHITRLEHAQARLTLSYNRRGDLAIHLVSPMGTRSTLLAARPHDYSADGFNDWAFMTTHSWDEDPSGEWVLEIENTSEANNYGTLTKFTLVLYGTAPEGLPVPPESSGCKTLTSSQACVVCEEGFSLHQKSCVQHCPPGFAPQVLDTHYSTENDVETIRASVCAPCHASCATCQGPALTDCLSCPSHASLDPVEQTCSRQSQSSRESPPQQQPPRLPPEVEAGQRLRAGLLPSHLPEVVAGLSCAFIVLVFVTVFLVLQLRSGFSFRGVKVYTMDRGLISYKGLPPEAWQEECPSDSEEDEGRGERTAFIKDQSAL

## NC(=O)C(c1ccccc1)(c1ccccc1)[C@H]1CCCN(CCc2ccc3c(c2)CCO3)C1
[1]
  EC50: 1.3 µM
[2]
  selectivity ratio: 17
[3]
  inhibition at 15 µM: 2%
[4]
  fold change (FC): 2.1
[5]
  EC50: > 32 µM
[6]
  fold change (FC): 0.9
[7]
  EC50: 8.6 µM
[8]
  EC50: > 32 µM
[9]
  EC50: Active
Furin (Homo sapiens)
  Activity: inactive
[10]
  EC50: Active
[11]
  fold change (FC): 8.3
[12]
  CC50 at 144 h: 47 µM
[13]
  Activity: inactive
[14]
  EC50: 5.3 µM
[15]
  EC50: > 32 µM
[16]
  inhibition at 15 µM: 100%
[17]
  EC50: 0.9 µM
[18]
  inhibition at 7.5 µM: 99%
[19]
  fold change (FC): >31
[20]
  fold change (FC): 4
[21]
  EC50: 1.2 µM
[22]
  inhibition in vivo at 15 µM: -6%
[23]
  inhibition at 1 µM: 44%
[24]
  fold change (FC): >31
[25]
  EC50: > 32 µM
[26]
  EC50: 0.9 µM
[27]
  CC50 at 144 h: 53 µM
